{
  "source": "patent US10966995B2",
  "about": "“Use of secoisolariciresinol diglucosides (SDGS) and related compounds for protection against radiation and chemical damage” (THE TRUSTEES OF THE UNIVERSITY OF PENNSYLVANIA, priority 2014, dated 2021)",
  "test_system": "human epithelial cells",
  "experiment": "BaP-induced oxidative DNA damage (gamma-H2AX levels)",
  "type": "cell-based",
  "conditions": "SDG 5, 10, 25, 50 and 100 μM",
  "source_text": "Similarly, SDG prevents genotoxic stress in human epithelial cells exposed to BaP. Exposure of cells to a potent carcinogen such as BaP, induces genotoxic stress as indicated by increased levels of p53 protein (FIG. 25). […] SDG also prevents oxidative DNA damages in human epithelial cells exposed to BaP. Exposure of cells to a potent carcinogen such as BaP, induces oxidative DNA damage as indicated by increased levels of gamma-H2AX, a marker for double-stranded DNA breaks (FIG. 26). […] Furthermore, SDG prevents DNA adduct formation in human epithelial cells exposed to BaP. Exposure of cells to a potent carcinogen such as BaP, induces the formation of DNA adducts (FIG. 27). DNA adducts are pieces of DNA covalently linked to a carcinogen and is directly linked to the development of malignancy. The DNA adduct levels is decreased by the presence of SDG or its metabolites ED and EL given alone or in combination.",
  "data": [
    {"smiles": "COc1cc(C[C@@H](CO[C@@H]2O[C@H](CO)[C@@H](O)[C@H](O)[C@H]2O)[C@H](CO[C@@H]2O[C@H](CO)[C@@H](O)[C@H](O)[C@H]2O)Cc2ccc(O)c(OC)c2)ccc1O", "note": "[SDG, secoisolariciresinol diglucoside]", "values": [
      {"measurement": "gamma-H2AX levels", "result": "mitigated dose-dependently"}
    ]}
  ]
}
